Source: US9550792B2, “Polycyclic substituted pyrazole kinase activity inhibitors and use thereof” (priority 2013, dated 2017)
Converted amounts (≈) assume the structure as drawn. Where two headings read alike, the source gives them in different places.

How the values were obtained:
[1] = system: liver cancer cell line 7721; experiment: Anti-tumor activity in vitro, MTT method; type: cell-based; details: 48 h, read-out: 7721 (IC50/μM)
CDK2/A = target: T1, CDK2/A (Homo sapiens, UniProt P24941); experiment: Inhibitory activity to CDK2 (FRET); type: biochemical; details: for inhibition at 1 µM: read-out: CDK2 inhibition % (1 × 10^−6 mol/L)
T1 construct: purchased
Protocol: CDK2/A was purchased in the form of a kit or obtained through purification.
Procedures: CDK2/A is diluted to a suitable concentration with kinase diluent. The kinase reaction mixture contains CDK2/A, peptide substrate, HEPES (pH7.5), BRIJ-35, MgCl2 and EDTA. CDK2 phospho-peptide substrate is used as the control of 100% phosphorylation and ATP-free as the control of 0% phosphorylation. After 1 h, the diluted Development Reagent A is added into the reaction system. Then the reaction is allowed to proceed for 1 h and then quenched with Stop Reagent. […] The inhibitions of the tested compounds are calculated according to the formula.

lung cancer cell H1299 = experiment: Anti-tumor activity in vitro, MTT method; type: cell-based; details: read-out: H1299 (IC50/μM)
[2] = system: colon cancer cell line HCT116; experiment: Anti-tumor activity in vitro, MTT method; type: cell-based; details: read-out: HCT-116 (IC50/μM)
Aurora A = target: T2, Aurora A (Homo sapiens, UniProt O14965); experiment: Inhibitory activity to Aurora A (FRET); type: biochemical; details: for inhibition at 1 µM: read-out: Aurora A inhibition % (1 × 10^−6 mol/L)
T2 construct: purchased
T2 sequence (O14965 1-403): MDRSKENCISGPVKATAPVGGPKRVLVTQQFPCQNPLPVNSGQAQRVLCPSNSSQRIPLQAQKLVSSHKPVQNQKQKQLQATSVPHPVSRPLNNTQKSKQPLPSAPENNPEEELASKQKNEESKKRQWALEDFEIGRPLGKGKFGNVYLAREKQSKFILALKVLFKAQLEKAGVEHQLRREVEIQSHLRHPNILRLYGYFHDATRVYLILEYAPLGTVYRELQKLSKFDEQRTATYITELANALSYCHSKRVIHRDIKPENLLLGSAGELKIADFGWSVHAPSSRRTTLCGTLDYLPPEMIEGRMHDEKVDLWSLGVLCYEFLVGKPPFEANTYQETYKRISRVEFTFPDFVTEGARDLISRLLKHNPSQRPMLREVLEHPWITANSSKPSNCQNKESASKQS
Protocol: The inhibitory activities of the synthesized compounds for Aurora A is determined by fluorescence resonance energy transfer (FRET) and were compared with the positive control drug so as to screen the compounds with better activities. Aurora A was purchased in the form of a kit or obtained through purification. Procedures: Aurora A is diluted to a suitable concentration with kinase diluent. The kinase reaction mixture contains Aurora A, peptide substrate, HEPES (pH7.5), BRIJ-35, MgCl2 and EDTA. Aurora A phospho-peptide substrate is used as the control of 100% phosphorylation and ATP-free as the control of 0% phosphorylation. After 1 h, the diluted Development Reagent A is added into the reaction system. Then the reaction is allowed to proceed for 1 h and then quenched with Stop Reagent. The excitation wavelength is 400 nm and the fluorescence intensity is detected at 445 nm (coumarin) and 520 nm (fluorescein). The inhibitions of the tested compounds are calculated according to the formula.

Phytophthora infestans = type: in vivo
Cryptococcus neoformans = experiment: Antifungal activity, modified broth microdilution; type: cell-based; details: Cryptococcus neoformans; 48 hours at 35, approximately 50% reduction of growth
Protocol: (§1) The test microorganisms are maintained on Sabourahd Dextrose Agar slant at 4[…]. Singlet suspension of each microorganism is prepared by growing the yeast overnight at 27[…] on a rotating drum in yeast-nitrogen base broth (YNB) with amino acids (Difco, Detroit, Mich.), (pH 7.0) and 0.05 morpholine propanesulphonic acid (MOPS). […] The activity of the test compound is determined using a modified broth microdilution technique. […] Well 12 serves as a growth control. […] Inoculated plate is incubated for 48 hours at 35 °C. […] Minimal Cytolytic Concentration (MCC) is determined by subculturing all wells from the 96-well plate onto a Sabourahd Dextrose Agar (SDA) plate, incubating for 1-2 days at 35 °C, and then checking viability.

Candida parapsilosis = experiment: Antifungal activity, modified broth microdilution; type: cell-based; details: Lodderomyces parapsilosis; 48 hours at 35, approximately 50% reduction of growth
Protocol: as §1

Candida tropicalis = experiment: Antifungal activity, modified broth microdilution; type: cell-based; details: Candida tropicalis; 48 hours at 35, approximately 50% reduction of growth
Protocol: as §1

[3] = system: Candida albicans - ATCC 36082; experiment: Antifungal activity, modified broth microdilution; type: cell-based; details: Candida albicans, ATCC36082; 48 hours at 35, approximately 50% reduction of growth
Protocol: as §1

[4] = Homo sapiens, NCI-H1299, MTT, 48 h
[5] = Homo sapiens, HCT-116, MTT, 48 h, first cell table

O=C(Nc1c[nH]nc1-c1nc2ccc(CN3CCOCC3)cc2[nH]1)NC1CC1 [AT-9283, reference compound]
IC50 ([1]; MTT): 61.2 µM
inhibition at 1 µM (CDK2/A): 39.7%
IC50 (lung cancer cell H1299; [4]): 10.8 µM
IC50 [2, 5]: 21.2 µM
inhibition at 1 µM (Aurora A): 77.4%

CN1CCN(Cc2ccc(NC(=O)c3n[nH]cc3Nc3ncnc4ccsc34)cc2)CC1 [Compound I-9, 4-(4-thieno[3,2-d]pyrimidinylamino)-N-(4-((4-methyl-1-piperazinyl)methyl)phenyl)-1H-3-pyrazole carboxamide]
melting point: > 280 °C
Severity of tomato leaf blight (Phytophthora infestans; 0.0001 (unit not given)): ++ (15-40% blight)
Severity of tomato leaf blight (Phytophthora infestans; 0.001 (unit not given)): ++ (15-40% blight)
Severity of tomato leaf blight (Phytophthora infestans; 0.01 (unit not given)): −
Severity of tomato leaf blight (Phytophthora infestans; 0.1 (unit not given)): −
inhibition at 1 µM (CDK2/A): 65%
MIC (Cryptococcus neoformans): 15.6 µg/mL (≈ 34.7 µM)
MIC (Candida parapsilosis): 8.7 µg/mL (≈ 19.4 µM)
MIC (Candida tropicalis): 10.7 µg/mL (≈ 23.9 µM)
MIC [3]: 12.7 µg/mL (≈ 28.4 µM)
inhibition at 1 µM (Aurora A): 67.6%

Cc1c[nH]c2ncnc(Nc3c[nH]nc3C(=O)Nc3ccc(CN4CCOCC4)cc3)c12 [Compound I-16, 4-(4-(5-methyl-7H-pyrrolo[2,3-d]pyrimidinyl)amino)-N-(4-((4-morpholinyl)methyl)phenyl)-1H-3-pyrazolecarboxamide]
IC50 ([1]; MTT): 54.2 µM
CDK2 inhibition % (1 × 10^−6 mol/L) (CDK2/A; 1 × 10^−6 mol/L): 50.49%
IC50 (lung cancer cell H1299; MTT, 48 h): 89 µM
IC50 ([2]; MTT, 48 h, first cell table): 32.3 µM
Aurora A inhibition % (1 × 10^−6 mol/L) (Aurora A; 1 × 10^−6 mol/L): 56.18%

O=C(Nc1ccc(CN2CCOCC2)cc1)c1n[nH]cc1Nc1ncnc2occc12 [Compound I-22, 4-(4-furo[2,3-d]pyrimidinylamino)-N-(4-((4-morpholinyl)methyl)phenyl)-1H-3-pyrazolecarboxamide]
melting point: > 280 °C
IC50 ([1]; MTT): 18.1 µM
inhibition at 1 µM (CDK2/A): 66.3%
IC50 (lung cancer cell H1299; [4]): 10.3 µM
IC50 [2, 5]: 8.63 µM
inhibition at 1 µM (Aurora A): 48.5%

CN1CCN(Cc2ccc(NC(=O)c3n[nH]cc3Nc3ncnc4ccoc34)cc2)CC1 [Compound I-23, 4-(4-furo[3,2-d]pyrimidinylamino)-N-(4-((4-methyl-1-piperazinyl)methyl)phenyl)-1H-3-pyrazolecarboxamide]
melting point: 277 to 279 °C
Severity of tomato leaf blight (Phytophthora infestans; 0.0001 (unit not given)): +++ (40-60% blight)
Severity of tomato leaf blight (Phytophthora infestans; 0.001 (unit not given)): ++ (15-40% blight)
Severity of tomato leaf blight (Phytophthora infestans; 0.01 (unit not given)): −
Severity of tomato leaf blight (Phytophthora infestans; 0.1 (unit not given)): −
inhibition at 1 µM (CDK2/A): 60.6%
MIC (Cryptococcus neoformans): 5.82 µg/mL (≈ 13.5 µM)
MIC (Candida parapsilosis): 4.32 µg/mL (≈ 9.99 µM)
MIC (Candida tropicalis): 3.24 µg/mL (≈ 7.49 µM)
MIC [3]: 2.92 µg/mL (≈ 6.75 µM)
inhibition at 1 µM (Aurora A): 59.7%

CN1CCN(Cc2ccc(NC(=O)c3n[nH]cc3Nc3nccc4sccc34)cc2)CC1 [Compound I-25, 4-(4-thieno[3,2-c]pyridylamino)-N-(4-((4-methyl-1-piperazinyl)methyl)phenyl)-1H-3-pyrazolecarboxamide]
melting point: 268 to 270 °C
Severity of tomato leaf blight (Phytophthora infestans; 0.0001 (unit not given)): ++ (15-40% blight)
Severity of tomato leaf blight (Phytophthora infestans; 0.001 (unit not given)): ++ (15-40% blight)
Severity of tomato leaf blight (Phytophthora infestans; 0.01 (unit not given)): + (0-15% blight)
Severity of tomato leaf blight (Phytophthora infestans; 0.1 (unit not given)): −
inhibition at 1 µM (CDK2/A): 59.5%
MIC (Cryptococcus neoformans): 2.83 µg/mL (≈ 6.32 µM)
MIC (Candida parapsilosis): 0.96 µg/mL (≈ 2.14 µM)
MIC (Candida tropicalis): 1.08 µg/mL (≈ 2.41 µM)
MIC [3]: 3.38 µg/mL (≈ 7.55 µM)
inhibition at 1 µM (Aurora A): 59.7%

CN1CCN(Cc2ccc(NC(=O)c3n[nH]cc3Nc3nccc4ccsc34)cc2)CC1 [Compound I-29, 4-(7-thieno[2,3-c]pyridylamino)-N-(4-((4-methyl-1-piperazinyl)methyl)phenyl)-1H-3-pyrazolecarboxamide]
melting point: 274 to 276 °C
IC50 [1]: 4.95 µM
Severity of tomato leaf blight (Phytophthora infestans; 0.0001 (unit not given)): +++ (40-60% blight)
Severity of tomato leaf blight (Phytophthora infestans; 0.001 (unit not given)): ++ (15-40% blight)
Severity of tomato leaf blight (Phytophthora infestans; 0.01 (unit not given)): + (0-15% blight)
Severity of tomato leaf blight (Phytophthora infestans; 0.1 (unit not given)): −
inhibition at 1 µM (CDK2/A): 76.2%
IC50 (lung cancer cell H1299; Homo sapiens, NCI-H1299, 48 h): 3.84 µM
IC50 ([2]; Homo sapiens, HCT-116, 48 h): 0.26 µM
MIC (Cryptococcus neoformans): 7.81 µg/mL (≈ 17.4 µM)
MIC (Candida parapsilosis): 6.47 µg/mL (≈ 14.5 µM)
MIC (Candida tropicalis): 4.21 µg/mL (≈ 9.41 µM)
MIC [3]: 2.73 µg/mL (≈ 6.1 µM)
inhibition at 1 µM (Aurora A): 64.4%

CN1CCN(Cc2ccc(NC(=O)c3n[nH]cc3Nc3ccnc4ccoc34)cc2)CC1 [Compound I-39, 4-(7-furo[3,2-b]pyridylamino)-N-(4-((4-methyl-1-piperazinyl)methyl)phenyl)-1H-3-pyrazolecarboxamide]
melting point: 268 to 270 °C
IC50 ([1]; MTT): > 200 µM
inhibition at 1 µM (CDK2/A): 37.6%
IC50 (lung cancer cell H1299; [4]): > 200 µM
IC50 [2, 5]: > 200 µM
inhibition at 1 µM (Aurora A): 42.1%
